Data as given in ChEMBL document CHEMBL1201862, “PubChem BioAssay data set” (2004).
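Dose response: 5 concentrations. Exposure: 48 h. Format: 96-well plates. Endpoint: linear interpolation; highest concentration if not reached. GI50 = concentration required for 50% inhibition of growth.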 Calls of active or inactive are those of the source. Cut-off read from the data, not from the text of the source: active = GI50 up to about 1.1 µM and inactive = higher.

Key:
Assay in all cases: DTP human tumour cell line panel, 48 h
[1] = system: OVCAR-3
[2] = system: HOP-62
[3] = system: CCRF-CEM
[4] = system: NCI-H460
[5] = system: MDA-MB-435
[6] = system: OVCAR-4
[7] = system: PC-3
[8] = system: UACC-62
[9] = system: UO-31
[10] = system: CAKI-1
[11] = system: RPMI-8226
[12] = system: Malme-3M
[13] = system: SF-539
[14] = system: MDA-MB-231
[15] = system: U-251
[16] = system: COLO 205
[17] = system: DU-145
[18] = system: SF-268
[19] = system: HCC 2998
[20] = system: HOP-92

SMILES | GI50 [1] | GI50 [2] | GI50 [3] | GI50 [4] | GI50 [5] | GI50 [6] | GI50 [7] | GI50 [8] | GI50 [9] | GI50 [10] | GI50 [11] | GI50 [12] | GI50 [13] | GI50 [14] | GI50 [15] | GI50 [16] | GI50 [17] | GI50 [18] | GI50 [19] | GI50 [20]
Cc1ccc2c(n1)C(=O)C=CC2=O | 2.71 µM (inactive) | 26.3 µM (inactive) | 1.17 µM (inactive) | 17.4 µM (inactive) | 17.2 µM (inactive) | 6.87 µM (inactive) | 16.8 µM (inactive) | 13.7 µM (inactive) | 5.46 µM (inactive) | 2.02 µM (inactive) | 2.59 µM (inactive) | 5.79 µM (inactive) | 16.5 µM (inactive) | 4.72 µM (inactive) | 17.4 µM (inactive) | 2.14 µM (inactive) | 14.8 µM (inactive) | 20.9 µM (inactive) | 16.3 µM (inactive) | 3.9 µM (inactive)
CN(C)CCNC(=O)C(C)(C)Oc1ccc(C(=O)c2ccc(Cl)cc2)cc1Cl | 12.6 µM (inactive) | 11.5 µM (inactive) | 33.4 µM (inactive) | 7.98 µM (inactive) | 5.6 µM (inactive) | 14.5 µM (inactive) | 11.5 µM (inactive) | 2.04 µM (inactive) | 9.59 µM (inactive) | 13.1 µM (inactive) | 3.94 µM (inactive) | 5.01 µM (inactive) | 9.46 µM (inactive) | 10.9 µM (inactive) | 7.05 µM (inactive) | 1.82 µM (inactive) | 13.2 µM (inactive) | 13.7 µM (inactive) | 5.21 µM (inactive) | 6 µM (inactive)
O=C1C[C@@H](c2ccccc2)O[C@@H](c2ccccc2)C1 | > 100 µM (inactive) | > 100 µM (inactive) | > 100 µM (inactive) | > 100 µM (inactive) | > 100 µM (inactive) | > 100 µM (inactive) | > 100 µM (inactive) | > 100 µM (inactive) | > 100 µM (inactive) | > 100 µM (inactive) | > 100 µM (inactive) | > 100 µM (inactive) | > 100 µM (inactive) | > 100 µM (inactive) | > 100 µM (inactive) | 97.5 µM (inactive) | > 100 µM (inactive) | > 100 µM (inactive) | > 100 µM (inactive) | > 100 µM (inactive)
COc1ccc(/N=C2\C(=S)N(c3ccc(OC)cc3)/C(=N/S(=O)(=O)c3ccccc3)N2c2ccccc2)cc1 | 5.5 µM (inactive) | > 35.3 µM (inactive) | 2.59 µM (inactive) | 23.8 µM (inactive) | 7.87 µM (inactive) | 9.25 µM (inactive) | 4.67 µM (inactive) | 6.07 µM (inactive) | 3.59 µM (inactive) | 13.2 µM (inactive) | 1.45 µM (inactive) | 15.1 µM (inactive) | 9.12 µM (inactive) | 4.79 µM (inactive) | 8.53 µM (inactive) | 8.81 µM (inactive) | 22.1 µM (inactive) | 8.87 µM (inactive) | > 34.5 µM (inactive) | 7.01 µM (inactive)
C[n+]1c2ccccc2c(CNC(CCC(N)=O)C(=O)O)c2ccccc21 (stereo not given) | 2.31 µM (inactive) | 4.94 µM (inactive) | 0.366 µM (active) | 3.72 µM (inactive) | 2.55 µM (inactive) | 3.46 µM (inactive) | 5.61 µM (inactive) | 2.23 µM (inactive) | 2.67 µM (inactive) | 2.36 µM (inactive) | 0.39 µM (active) | 4.44 µM (inactive) | 2.34 µM (inactive) | 5.36 µM (inactive) | 3.31 µM (inactive) | 0.525 µM (active) | 5.52 µM (inactive) | 1.77 µM (inactive) | 4.24 µM (inactive) | 0.948 µM (active)
NNc1ccccc1Cl | 38.7 µM (inactive) | > 100 µM (inactive) | 43.1 µM (inactive) | 41.4 µM (inactive) | > 100 µM (inactive) | 91.2 µM (inactive) | 69.2 µM (inactive) | 23.4 µM (inactive) | 89.1 µM (inactive) | 30.9 µM (inactive) | > 100 µM (inactive) | > 100 µM (inactive) | > 100 µM (inactive) | > 100 µM (inactive) | 48.4 µM (inactive) | 29 µM (inactive) | > 100 µM (inactive) | > 100 µM (inactive) | > 100 µM (inactive) | > 100 µM (inactive)
OCCCCCNc1nc(O)c2[nH]cnc2n1 | > 100 µM (inactive) | > 100 µM (inactive) | > 100 µM (inactive) | > 100 µM (inactive) | > 100 µM (inactive) | > 100 µM (inactive) | > 100 µM (inactive) | > 100 µM (inactive) | > 100 µM (inactive) | > 100 µM (inactive) | > 100 µM (inactive) | > 100 µM (inactive) | 8.17 µM (inactive) | > 100 µM (inactive) | > 100 µM (inactive) | > 100 µM (inactive) | > 100 µM (inactive) | > 100 µM (inactive) | > 100 µM (inactive) | > 100 µM (inactive)
